Measurements reported in patent publication US20160220569A1, “CDK4/6 Inhibitor Dosage Formulations For The Protection Of Hematopoietic Stem And Progenitor Cells During Chemotherapy” (G1 Therapeutics, Inc., priority 2015, published 2016).
Like-named read-outs stand apart in the source and are kept apart here.

Experiment: 14-day oral gavage toxicokinetic study in rats
Type: in vivo
Settings: rat, plasma, po; for concentration at 0.5 h / concentration at 1 h / concentration at 2 h / concentration at 4 h / concentration at 8 h / concentration at 12 h / concentration at 24 h / concentration at […]: rats; for half-life: read-out: t½ (converted)
Experimental: Plasma was obtained from blood samples collected from rats in a composite sampling scheme, with 3 samples collected per sex, per dose, at each target collection time, as illustrated in Table 21 to Table 25. Samples were collected from the vehicle control group on Day 1 and Day 14 at 3 hour after administration. […] Blood samples were collected in tubes containing K3EDTA as an anticoagulant and placed on ice until processed to plasma via centrifugation. Samples were stored frozen at −80° C. until shipment to the bioanalytical laboratory for analysis.
The following parameters were determined:
Cmax: Maximum observed plasma concentration (ng/mL).
A value of 0 ng/mL was assigned to all values below the lower limit of quantitation (BLQ, <10.0 ng/mL).
AUC(0-inf): Area under the plasma concentration vs. time curve extrapolated from 0 to infinity (ng*h/mL), calculated as AUC(0-t)+AUC(t-inf) where AUC(t-inf) is calculated as last measurable concentration (CLast) divided by ke, where ke is the elimination rate constant determined by linear regression of the last three analytically measured points on the log plasma concentration vs. time curve. The selection criteria of the data points for inclusion in the calculation of ke required that at least three data points representing the terminal phase (after Tmax) were regressed and that R2≧0.850 when rounded.
CL: Clearance (L/h/kg), calculated as the dose divided by AUC(0-t).
Vd: Volume of distribution (L/kg), calculated as dose divided by the product of ke and AUC(0-inf).
Vdss: Steady state volume of distribution (L/kg), calculated as clearance […] mean residence time, where mean residence time is calculated as the area under the first moment curve divided by AUC(0-t).
t½: Elimination half-life (h), calculated as ln(2)/ke, where ke is the elimination rate constant determined by linear regression. Half-life was defined as not determined if regression criteria (specified in AUC(0-inf) above) were not met.
Cmax/Dose: Normalized Cmax, calculated as Cmax divided by total dose.
AUC/Dose: Normalized AUC, calculated as AUC(0-t) divided by total dose.
ii. Statistical Analysis Mean and standard deviation (SD) were calculated in Watson. Values of BLQ were assigned a value of 0 ng/mL for mean calculations. Concentration values and derived TK parameters were reported to three significant figures.

[1] = female, 30 mg/kg, oral 30 mg/kg, Study Day 1, Female
[2] = female, 30 mg/kg, oral 30 mg/kg, Study Day 14, Female
[3] = male, 2 mg/kg, oral 2 mg/kg, Study Day 1, Male
[4] = male, 2 mg/kg, oral 2 mg/kg, Study Day 14, Male

CN1CCN(c2ccc(Nc3ncc4cc5n(c4n3)C3(CCCCC3)CNC5=O)nc2)CC1 [Compound 1, 2′-((5-(4-methylpiperazin-1-yl)pyridin-2-yl)amino)-7′,8′-dihydro-6′H-spiro[cyclohexane-1,9′-pyrazino[1′,2′:1,5]pyrrolo[2,3-d]pyrimidin]-6′-one]
concentration at 0.5 h (female, 30 mg/kg, Mean Compound 1 Plasma Concentration, oral 30 mg/kg, Day 1, 0.5 h, Female): 2160 ng/mL | concentration at 1 h (female, 30 mg/kg, Mean Compound 1 Plasma Concentration, oral 30 mg/kg, Day 1, 1 h, Female): 2140 ng/mL | concentration at 2 h (female, 30 mg/kg, Mean Compound 1 Plasma Concentration, oral 30 mg/kg, Day 1, 2 h, Female): 3090 ng/mL | concentration at 4 h (female, 30 mg/kg, Mean Compound 1 Plasma Concentration, oral 30 mg/kg, Day 1, 4 h, Female): 2510 ng/mL | concentration at 8 h (female, 30 mg/kg, Mean Compound 1 Plasma Concentration, oral 30 mg/kg, Day 1, 8 h, Female): 2470 ng/mL | concentration at 12 h (female, 30 mg/kg, Mean Compound 1 Plasma Concentration, oral 30 mg/kg, Day 1, 12 h, Female): 1940 ng/mL | concentration at 24 h (female, 30 mg/kg, Mean Compound 1 Plasma Concentration, oral 30 mg/kg, Day 1, 24 h, Female): 284 ng/mL | concentration at […] (female, 30 mg/kg, Mean Compound 1 Plasma Concentration, oral 30 mg/kg, Day 1, […], Female): 92.9 ng/mL | concentration at 0.5 h (female, 30 mg/kg, Mean Compound 1 Plasma Concentration, oral 30 mg/kg, Day 14, 0.5 h, Female): 1540 ng/mL | concentration at 1 h (female, 30 mg/kg, Mean Compound 1 Plasma Concentration, oral 30 mg/kg, Day 14, 1 h, Female): 2230 ng/mL | concentration at 2 h (female, 30 mg/kg, Mean Compound 1 Plasma Concentration, oral 30 mg/kg, Day 14, 2 h, Female): 2010 ng/mL | concentration at 4 h (female, 30 mg/kg, Mean Compound 1 Plasma Concentration, oral 30 mg/kg, Day 14, 4 h, Female): 2320 ng/mL | concentration at 8 h (female, 30 mg/kg, Mean Compound 1 Plasma Concentration, oral 30 mg/kg, Day 14, 8 h, Female): 1960 ng/mL | concentration at 12 h (female, 30 mg/kg, Mean Compound 1 Plasma Concentration, oral 30 mg/kg, Day 14, 12 h, Female): 2290 ng/mL | concentration at 24 h (female, 30 mg/kg, Mean Compound 1 Plasma Concentration, oral 30 mg/kg, Day 14, 24 h, Female): 322 ng/mL | concentration at […] (female, 30 mg/kg, Mean Compound 1 Plasma Concentration, oral 30 mg/kg, Day 14, […], Female): 537 ng/mL | AUC(0-inf) [1]: 43800 ng·h/mL | AUC(0-t) [1]: 41800 ng·h/mL | Cmax [1]: 3090 ng/mL | Tmax [1]: 2 h | half-life [1]: 295 min | AUC(0-inf) [2]: 43200 ng·h/mL | AUC(0-t) [2]: 40600 ng·h/mL | Cmax [2]: 2320 ng/mL | Tmax [2]: 4 h | half-life [2]: 334 min | concentration at 1 h (male, 2 mg/kg, Compound 1 Plasma Concentration, Male, Day 1, 1 h, daily oral 2 mg/kg (Group 7), individual animals): 59.1 ng/mL | concentration at 2 h (male, 2 mg/kg, Compound 1 Plasma Concentration, Male, Day 1, 2 h, daily oral 2 mg/kg (Group 7), individual animals): 97.4 ng/mL | concentration at 4 h (male, 2 mg/kg, Compound 1 Plasma Concentration, Male, Day 1, 4 h, daily oral 2 mg/kg (Group 7), individual animals): 122 ng/mL | concentration at 8 h (male, 2 mg/kg, Compound 1 Plasma Concentration, Male, Day 1, 8 h, daily oral 2 mg/kg (Group 7), individual animals): 99 ng/mL | concentration at 12 h (male, 2 mg/kg, Compound 1 Plasma Concentration, Male, Day 1, 12 h, daily oral 2 mg/kg (Group 7), individual animals): 51.9 ng/mL | concentration at 0.5 h (male, 2 mg/kg, Compound 1 Plasma Concentration, Male, Day 14, 0.5 h, daily oral 2 mg/kg (Group 7), individual animals): 36.3 ng/mL | concentration at 2 h (male, 2 mg/kg, Compound 1 Plasma Concentration, Male, Day 14, 2 h, daily oral 2 mg/kg (Group 7), individual animals): 84.3 ng/mL | concentration at 4 h (male, 2 mg/kg, Compound 1 Plasma Concentration, Male, Day 14, 4 h, daily oral 2 mg/kg (Group 7), individual animals): 117 ng/mL | concentration at 8 h (male, 2 mg/kg, Compound 1 Plasma Concentration, Male, Day 14, 8 h, daily oral 2 mg/kg (Group 7), individual animals): 68.7 ng/mL | concentration at 12 h (male, 2 mg/kg, Compound 1 Plasma Concentration, Male, Day 14, 12 h, daily oral 2 mg/kg (Group 7), individual animals): 65.7 ng/mL | concentration at 0.5 h (male, 2 mg/kg, Mean Compound 1 Plasma Concentration, oral 2 mg/kg, Day 1, 0.5 h, Male): 57.7 ng/mL | concentration at 1 h (male, 2 mg/kg, Mean Compound 1 Plasma Concentration, oral 2 mg/kg, Day 1, 1 h, Male): 57.1 ng/mL | concentration at 2 h (male, 2 mg/kg, Mean Compound 1 Plasma Concentration, oral 2 mg/kg, Day 1, 2 h, Male): 102 ng/mL | concentration at 8 h (male, 2 mg/kg, Mean Compound 1 Plasma Concentration, oral 2 mg/kg, Day 1, 8 h, Male): 90.4 ng/mL | concentration at 12 h (male, 2 mg/kg, Mean Compound 1 Plasma Concentration, oral 2 mg/kg, Day 1, 12 h, Male): 53.7 ng/mL | concentration at 0.5 h (male, 2 mg/kg, Mean Compound 1 Plasma Concentration, oral 2 mg/kg, Day 14, 0.5 h, Male): 47 ng/mL | concentration at 1 h (male, 2 mg/kg, Mean Compound 1 Plasma Concentration, oral 2 mg/kg, Day 14, 1 h, Male): 57.1 ng/mL | concentration at 2 h (male, 2 mg/kg, Mean Compound 1 Plasma Concentration, oral 2 mg/kg, Day 14, 2 h, Male): 94.9 ng/mL | concentration at 4 h (male, 2 mg/kg, Mean Compound 1 Plasma Concentration, oral 2 mg/kg, Day 14, 4 h, Male): 116 ng/mL | concentration at 8 h (male, 2 mg/kg, Mean Compound 1 Plasma Concentration, oral 2 mg/kg, Day 14, 8 h, Male): 94.2 ng/mL | concentration at 12 h (male, 2 mg/kg, Mean Compound 1 Plasma Concentration, oral 2 mg/kg, Day 14, 12 h, Male): 54 ng/mL | AUC(0-t) [3]: 1390 ng·h/mL | Cmax [3]: 126 ng/mL | Tmax [3]: 4 h | half-life [3]: 319 min | AUC(0-t) [4]: 1360 ng·h/mL | Cmax [4]: 116 ng/mL | Tmax [4]: 4 h | half-life [4]: 299 min
